Usually IC50 stands for the point on the concentration scale where inhibition reaches its midpoint. As usually defined, the microsomal CLint is the rate of metabolic loss divided by the concentration. By clearance is commonly meant the volume of plasma or blood freed of the substance per unit of time. Lower therefore signals a low capacity for elimination. The term logD denotes lipophilicity at a set pH, counting ionised and neutral species. By fraction unbound is commonly meant the share of the substance not bound to proteins or other matrix. A lower fraction unbound goes with extensive binding. The bioavailability is the share of a dose that reaches the circulation, judged against a reference dose that is usually intravenous. A higher bioavailability goes with much systemic uptake. In general, inhibition refers to the percentage by which the read-out fell short of the control.

The structures appear in SMILES notation. A value given as a limit tells only on which side of the number the result lay.

From ChEMBL document CHEMBL1821555, “Identification of a series of 4-[3-(quinolin-2-yl)-1,2,4-oxadiazol-5-yl]piperazinyl ureas as potent smoothened antagonist hedgehog pathway inhibitors” (Bioorg Med Chem Lett, 2011) come the findings set out here.

For data set [1], the system named is Shh Light II. The experiment in a line: Inhibition of Shh signaling in mouse Shh-light2 cells by Gli-dependent firefly luciferase reporter gene assay. The class given is functional, cell-based. (In a reporter assay the amount or activity of a reporter protein is the signal.)
Data set [2] concerns the target T1, Protein smoothened (Homo sapiens, UniProt Q99835). As to the kind of experiment: Displacement of Bodipy-labelled cyclopamine from Smo expressed in COS-1 cells in presence of 2% FBS after 4 to 6 hrs by FACS flow cytometric analysis. The class given is cell-based. Background: A flow cytometer gives signals particle by particle.
Data set [3] can be described thus: Intrinsic clearance in rat liver microsomes assessed per mg of protein. Type of data set: ADME, Microsome. For orientation: Liver microsomes are a subcellular fraction often used to study metabolism.
Data set [4] in a line: Intrinsic clearance in dog liver microsomes assessed per mg of protein. Type of data set: ADME, Canis lupus familiaris, Microsome.
A short description of data set [5]: Intrinsic clearance in human liver microsomes assessed per mg of protein. The class given is ADME, Microsome.
A short description of data set [6]: Clearance in rat. The class given is ADME, organism-based. Particulars: in vivo.
Data set [7] is described as follows: Lipophilicity, log D of the compound. Type of data set: physicochemical. Particulars: octanol/water.
Data set [8] in a line: Fraction unbound in rat plasma. Type of data set: ADME, cell-free.
Data set [9] is described as follows: Fraction unbound in human plasma. The class given is ADME, cell-free.
The nature of data set [10]: Oral bioavailability in rat. The class given is ADME, organism-based. Conditions: in vivo.
A further data set addresses CYP2C9 (Homo sapiens, UniProt P11712). As to the kind of experiment: Inhibition of CYP2C9 at 10 uM. Type of data set: ADME.
The target in a further data set is CYP3A4 (Homo sapiens, UniProt P08684). The experiment in a line: Inhibition of CYP3A4 at 10 uM. Type of data set: ADME.
CYP3A4, sequence (P08684 whole entry): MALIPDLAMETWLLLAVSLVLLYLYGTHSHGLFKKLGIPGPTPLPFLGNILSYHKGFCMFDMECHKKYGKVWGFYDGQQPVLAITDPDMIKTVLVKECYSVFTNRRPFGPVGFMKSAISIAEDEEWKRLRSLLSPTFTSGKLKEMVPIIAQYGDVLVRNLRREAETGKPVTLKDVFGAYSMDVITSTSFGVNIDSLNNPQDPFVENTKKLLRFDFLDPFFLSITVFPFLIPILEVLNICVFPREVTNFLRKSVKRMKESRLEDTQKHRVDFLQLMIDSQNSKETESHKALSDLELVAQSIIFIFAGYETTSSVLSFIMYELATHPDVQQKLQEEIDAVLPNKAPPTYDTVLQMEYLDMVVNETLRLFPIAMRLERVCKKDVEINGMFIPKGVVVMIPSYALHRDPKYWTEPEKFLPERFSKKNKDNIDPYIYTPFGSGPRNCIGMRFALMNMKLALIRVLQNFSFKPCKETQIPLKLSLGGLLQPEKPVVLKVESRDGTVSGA
The target in data set [11] is T1, Protein smoothened. As to the kind of experiment: Inhibition of Bodipy-labelled cyclopamine binding to Smo expressed in COS-1 cells in presence of 20% NHS after 4 to 6 hrs by FACS flow cytometric analysis. Type of data set: cell-based.
For data set [12], the system named is Potassium voltage-gated channel subfamily H member 2 (hERG), Homo sapiens. The experiment in a line: Inhibition of human ERG at 10 uM.
The target in data set [13] is T1, Protein smoothened. As to the kind of experiment: Inhibition of Bodipy-labelled cyclopamine binding to Smo expressed in COS-1 cells at 25 uM in presence of 20% NHS after 4 to 6 hrs by FACS flow cytometric analysis. The class given is cell-based.
Data set [14] concerns the target T1, Protein smoothened. As to the kind of experiment: Inhibition of Bodipy-labelled cyclopamine binding to Smo expressed in COS-1 cells at 2 uM in presence of 2% FBS after 4 to 6 hrs by FACS flow cytometric analysis. The class given is cell-based.
A further data set addresses Cytochrome P450 2D6 (Homo sapiens, UniProt P10635). As to the kind of experiment: Inhibition of CYP2D6. Type of data set: ADME.
A further data set concerns the target Cytochrome P450 2C9 (Homo sapiens, UniProt P11712). As to the kind of experiment: Inhibition of CYP2C9. Type of data set: ADME.
A further data set concerns the target Cytochrome P450 3A4 (Homo sapiens, UniProt P08684). The experiment in a line: Inhibition of CYP3A4. Type of data set: ADME.
In data set [15] the target is Potassium voltage-gated channel subfamily H member 2 (hERG), Homo sapiens. The experiment in a line: Inhibition of human ERG.
Data set [16] addresses T1, Protein smoothened. The experiment in a line: Inhibition of Bodipy-labelled cyclopamine binding to Smo expressed in COS-1 cells at 2.5 uM in presence of 2% FBS after 4 to 6 hrs by FACS flow cytometric analysis. The class given is cell-based.
Data set [17] concerns Shh Light II. As to the kind of experiment: Inhibition of Shh signaling in mouse Shh-light2 cells at 20 uM by Gli-dependent firefly luciferase reporter gene assay. Type of data set: functional.
In data set [18] the target is T1, Protein smoothened. The experiment in a line: Inhibition of Bodipy-labelled cyclopamine binding to Smo expressed in COS-1 cells at 4 uM in presence of 2% FBS after 4 to 6 hrs by FACS flow cytometric analysis. The class given is cell-based.

T1 sequence (Q99835 whole entry): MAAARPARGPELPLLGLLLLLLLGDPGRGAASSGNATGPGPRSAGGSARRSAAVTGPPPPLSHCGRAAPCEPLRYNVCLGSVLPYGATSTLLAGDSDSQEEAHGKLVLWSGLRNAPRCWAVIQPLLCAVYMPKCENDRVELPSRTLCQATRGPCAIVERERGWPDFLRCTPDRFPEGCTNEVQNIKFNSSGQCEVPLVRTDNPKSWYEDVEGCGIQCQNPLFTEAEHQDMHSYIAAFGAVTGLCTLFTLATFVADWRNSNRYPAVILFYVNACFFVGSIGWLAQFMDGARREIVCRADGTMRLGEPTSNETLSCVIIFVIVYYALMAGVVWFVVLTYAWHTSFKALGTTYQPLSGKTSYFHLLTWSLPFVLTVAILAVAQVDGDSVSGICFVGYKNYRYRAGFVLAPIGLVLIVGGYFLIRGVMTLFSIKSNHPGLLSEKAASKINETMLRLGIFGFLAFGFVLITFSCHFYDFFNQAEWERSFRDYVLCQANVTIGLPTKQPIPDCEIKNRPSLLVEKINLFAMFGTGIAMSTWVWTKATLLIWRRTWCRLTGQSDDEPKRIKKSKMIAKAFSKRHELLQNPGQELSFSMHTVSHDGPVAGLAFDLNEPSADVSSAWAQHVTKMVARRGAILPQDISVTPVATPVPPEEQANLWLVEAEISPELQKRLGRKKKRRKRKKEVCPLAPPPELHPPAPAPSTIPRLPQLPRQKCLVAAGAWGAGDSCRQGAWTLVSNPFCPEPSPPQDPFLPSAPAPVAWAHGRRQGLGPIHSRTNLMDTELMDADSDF
Cytochrome P450 2D6, sequence (P10635 whole entry): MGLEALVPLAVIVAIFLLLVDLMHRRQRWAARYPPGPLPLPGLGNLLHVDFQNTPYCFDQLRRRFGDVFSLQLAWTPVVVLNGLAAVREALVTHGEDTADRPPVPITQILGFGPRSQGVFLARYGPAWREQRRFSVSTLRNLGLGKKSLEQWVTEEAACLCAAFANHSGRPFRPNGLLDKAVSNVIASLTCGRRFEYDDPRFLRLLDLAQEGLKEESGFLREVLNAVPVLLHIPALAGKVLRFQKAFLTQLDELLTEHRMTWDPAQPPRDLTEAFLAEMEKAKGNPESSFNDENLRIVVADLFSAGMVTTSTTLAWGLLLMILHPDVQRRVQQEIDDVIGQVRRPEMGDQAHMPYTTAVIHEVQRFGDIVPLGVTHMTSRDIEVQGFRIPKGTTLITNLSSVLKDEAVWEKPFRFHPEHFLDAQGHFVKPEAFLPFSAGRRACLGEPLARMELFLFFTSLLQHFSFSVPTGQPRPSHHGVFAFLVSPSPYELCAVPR
Cytochrome P450 3A4, sequence (P08684 whole entry): as the sequence (P08684 whole entry) above
CYP2C9, sequence (P11712 whole entry): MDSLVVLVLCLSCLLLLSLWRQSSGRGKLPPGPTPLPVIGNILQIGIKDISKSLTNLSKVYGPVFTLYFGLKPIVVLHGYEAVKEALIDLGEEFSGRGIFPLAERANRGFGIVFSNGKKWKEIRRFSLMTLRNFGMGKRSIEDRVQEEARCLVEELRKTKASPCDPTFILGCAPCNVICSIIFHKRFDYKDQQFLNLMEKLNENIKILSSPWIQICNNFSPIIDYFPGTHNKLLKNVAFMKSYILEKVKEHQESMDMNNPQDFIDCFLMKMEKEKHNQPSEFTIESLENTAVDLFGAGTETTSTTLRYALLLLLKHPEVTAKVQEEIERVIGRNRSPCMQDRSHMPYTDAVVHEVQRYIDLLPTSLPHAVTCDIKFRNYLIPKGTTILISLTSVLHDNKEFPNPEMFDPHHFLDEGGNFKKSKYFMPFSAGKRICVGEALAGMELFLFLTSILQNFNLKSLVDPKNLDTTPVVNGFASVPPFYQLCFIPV
Cytochrome P450 2C9, sequence (P11712 whole entry): as above

`O=C(Nc1ccccc1Cl)N1CCC(c2nc(-c3ccc4ccccc4n3)no2)CC1`: the IC50 with Shh Light II [1] amounted to 0.51 µM; on Protein smoothened [2], 0.38 µM; on Protein smoothened [11] it was 3.5 µM. The results for the microsomal CLint in data set [3], in data set [4] and in data set [5] were over 200 µL/min/mg, 65 µL/min/mg and 45 µL/min/mg, respectively. Also, the clearance in data set [6] amounted to 11 mL/min/kg. Further, the pH-dependent lipophilicity (logD) in data set [7] stood at 4.25. Besides, the fraction unbound is 0.01 in data set [8] and 0.005 in data set [9]. This molecule also returned a bioavailability in data set [10] of 38%. In addition, the figures for the inhibition at 10 µM against CYP2C9 and at CYP3A4 were 62% and 58%, respectively. The molecule also yielded an inhibition in data set [12] of 62%.

Regarding `O=C(NC1CCC(O)CC1)N1CCC(c2nc(-c3ccc4ccccc4n3)no2)CC1` (stereo unspecified), the IC50 with Shh Light II [1] came to 2.7 µM; at Protein smoothened [2], 2.5 µM. Further, on Protein smoothened [13], the inhibition was 65%.

As for `COc1ccccc1NC(=O)N1CCC(c2nc(-c3ncccc3C)no2)CC1`, at Protein smoothened [14], the inhibition turned out to be 51%.

`O=C(Nc1ccccc1Cl)N1CCN(c2nc(-c3ccc4ccccc4n3)no2)CC1`: the IC50 in the data set with Shh Light II [1] was 0.14 µM; on Protein smoothened [2] it was 0.17 µM; at Cytochrome P450 2D6 it was over 25 µM; against Cytochrome P450 2C9, over 25 µM; against Cytochrome P450 3A4, over 25 µM; on Protein smoothened [11], 0.7 µM. Moreover, the IC50 in data set [15] came out at 12 µM. This molecule also had a logD in data set [7] of 2.95.

As to `Cc1cccnc1-c1noc(C2CCN(C(=O)Nc3ccccc3Cl)CC2)n1`, the inhibition at Protein smoothened [16] worked out at 63%.

As to `COc1ccccc1NC(=O)N1CCC(c2nnc(-c3ccc4ccccc4n3)o2)CC1`, on Protein smoothened [2], the IC50 worked out at 4.7 µM. 20 µM produced 57% inhibition with Shh Light II [17].

As to `COc1ccc(NC(=O)N2CCC(c3nc(-c4ccc5ccccc5n4)no3)CC2)cc1`, at Protein smoothened [2], the IC50 is over 2.5 µM. The inhibition at Protein smoothened [18] amounted to 68%.
